Results on twelve compounds are retold here after patent US20210009564A1, “CALPAIN MODULATORS AND THERAPEUTIC USES THEREOF” (BLADE THERAPERTICS, INC., priority 2018, published 2021).

Structures can show the parent of a compound that is named as a salt.

The target of one test is T1, Human Calpain 9/NS1 (Homo sapiens, UniProt O14815).
T1 sequence (O14815 1-690): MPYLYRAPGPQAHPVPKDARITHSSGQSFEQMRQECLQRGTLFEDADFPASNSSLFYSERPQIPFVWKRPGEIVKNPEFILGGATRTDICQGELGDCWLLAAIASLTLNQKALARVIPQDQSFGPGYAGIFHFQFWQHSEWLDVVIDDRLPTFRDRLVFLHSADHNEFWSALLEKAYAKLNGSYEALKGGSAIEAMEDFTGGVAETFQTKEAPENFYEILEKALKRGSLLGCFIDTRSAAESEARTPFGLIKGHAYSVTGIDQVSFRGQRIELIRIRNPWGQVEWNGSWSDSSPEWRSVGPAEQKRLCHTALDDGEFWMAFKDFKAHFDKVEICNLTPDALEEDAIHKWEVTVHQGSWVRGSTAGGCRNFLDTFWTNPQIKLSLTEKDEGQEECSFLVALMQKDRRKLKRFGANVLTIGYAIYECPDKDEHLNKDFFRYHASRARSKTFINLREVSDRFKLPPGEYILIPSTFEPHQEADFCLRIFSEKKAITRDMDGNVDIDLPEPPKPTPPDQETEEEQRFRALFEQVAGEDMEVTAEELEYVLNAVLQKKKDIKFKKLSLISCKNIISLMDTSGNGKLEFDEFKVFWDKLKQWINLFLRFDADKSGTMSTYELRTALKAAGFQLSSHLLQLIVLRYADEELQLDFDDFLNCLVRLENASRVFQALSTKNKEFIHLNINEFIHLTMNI
T1 sequence (P04632 1-268 partner): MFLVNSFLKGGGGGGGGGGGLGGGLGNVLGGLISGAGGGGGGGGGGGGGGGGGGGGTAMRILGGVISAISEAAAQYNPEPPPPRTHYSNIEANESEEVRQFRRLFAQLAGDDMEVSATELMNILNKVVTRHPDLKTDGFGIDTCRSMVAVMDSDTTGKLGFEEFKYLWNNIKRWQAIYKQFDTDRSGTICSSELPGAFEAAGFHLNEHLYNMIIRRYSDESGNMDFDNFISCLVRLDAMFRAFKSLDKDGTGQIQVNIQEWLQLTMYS
Put plainly: Calpain inhibition, continuous fluorescence (FRET substrate) assay, calpain 9. In kind it is biochemical. The settings on record: SensoLyte 520 FRET substrate, 25C. The procedure:
(§1) Calpain 1, 2, and 9 activity and inhibition thereof was assessed by means of a continuous fluorescence assay. The SensoLyte 520 Calpain substrate (Anaspec Inc) was optimized for detecting calpain activity. This substrate contains an internally quenched 5-FAM/QXLTM 520 FRET pair. Calpains 1, 2, and 9 cleave the FRET substrate into two separate fragments resulting in an increase of 5-FAM fluorescence that is proportional to calpain activity Assays were typically setup in black 384-well plates using automated liquid handling as follows. Calpain assay base buffer typically contains 50 mM Tris, pH 7.5, 100 mM NaCl and 1 mM DTT. Inhibitors were serially diluted in DMSO and used to setup 2× mixtures with calpains in the aforementioned buffer. After incubation at ambient temperature (25C), the reaction was initiated by adding a 2× mix of the fluorescent peptide substrate and CaCl2) (required for in-situ calpain activation) in the same buffer. Reaction progress curve data were typically collected for 10 min using excitation/emission wavelengths of 490 nm/520 nm on SpectraMax i3× or the FLIPR-Tetra plate readers (Molecular Devices Inc). Reaction rates were calculated from progress curve slopes typically over 1-5 min. Dose response curves (rate vs. log inhibitor concentration) were typically fit to a 4-parameter logistic function to extract IC50 values.

Test [1] has as its system Calpain activity in SH-SY5Y cells. Nature of the test: SH-SY5Y spectrin breakdown product (SBDP-150) western blot assay. The format is cell-based. The settings on record: Homo sapiens; SH-SY5Y cells, 25 uM A23187, SBDP-150 western blot; read-out: SH-SY5Y Spectrin IC50.
A further test concerns the target T2, Human Calpain 1/NS1 (Homo sapiens, UniProt P07384).
T2 sequence (P07384 1-714): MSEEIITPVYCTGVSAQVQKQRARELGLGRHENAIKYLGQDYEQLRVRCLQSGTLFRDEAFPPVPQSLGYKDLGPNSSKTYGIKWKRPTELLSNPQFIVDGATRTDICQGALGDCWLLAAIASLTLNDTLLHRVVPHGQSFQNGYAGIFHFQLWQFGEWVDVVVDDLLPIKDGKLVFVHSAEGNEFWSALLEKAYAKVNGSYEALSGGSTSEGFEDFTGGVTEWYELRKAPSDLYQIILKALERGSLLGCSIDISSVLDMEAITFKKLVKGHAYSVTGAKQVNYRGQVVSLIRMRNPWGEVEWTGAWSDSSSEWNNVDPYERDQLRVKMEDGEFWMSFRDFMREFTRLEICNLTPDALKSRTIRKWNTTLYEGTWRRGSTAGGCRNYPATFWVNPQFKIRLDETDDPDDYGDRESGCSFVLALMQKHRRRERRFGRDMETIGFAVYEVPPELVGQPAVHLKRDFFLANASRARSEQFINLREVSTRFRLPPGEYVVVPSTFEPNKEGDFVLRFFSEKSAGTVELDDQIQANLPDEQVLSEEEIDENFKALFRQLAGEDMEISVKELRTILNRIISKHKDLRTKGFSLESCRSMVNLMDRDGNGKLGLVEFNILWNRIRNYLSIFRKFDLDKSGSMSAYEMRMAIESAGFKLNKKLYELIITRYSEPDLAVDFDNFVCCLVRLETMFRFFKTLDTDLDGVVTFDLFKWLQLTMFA
T2 sequence (P04632 1-268 partner): T1 sequence (P04632 1-268 partner)
Nature of the test: Calpain inhibition, continuous fluorescence (FRET substrate) assay, calpain 1. The format is biochemical. The settings on record: SensoLyte 520 FRET substrate, 25C. The procedure: as §1

Another test addresses T3, Human Calpain 2/NS1 (Homo sapiens, UniProt P17655).
T3 sequence (P17655 1-700): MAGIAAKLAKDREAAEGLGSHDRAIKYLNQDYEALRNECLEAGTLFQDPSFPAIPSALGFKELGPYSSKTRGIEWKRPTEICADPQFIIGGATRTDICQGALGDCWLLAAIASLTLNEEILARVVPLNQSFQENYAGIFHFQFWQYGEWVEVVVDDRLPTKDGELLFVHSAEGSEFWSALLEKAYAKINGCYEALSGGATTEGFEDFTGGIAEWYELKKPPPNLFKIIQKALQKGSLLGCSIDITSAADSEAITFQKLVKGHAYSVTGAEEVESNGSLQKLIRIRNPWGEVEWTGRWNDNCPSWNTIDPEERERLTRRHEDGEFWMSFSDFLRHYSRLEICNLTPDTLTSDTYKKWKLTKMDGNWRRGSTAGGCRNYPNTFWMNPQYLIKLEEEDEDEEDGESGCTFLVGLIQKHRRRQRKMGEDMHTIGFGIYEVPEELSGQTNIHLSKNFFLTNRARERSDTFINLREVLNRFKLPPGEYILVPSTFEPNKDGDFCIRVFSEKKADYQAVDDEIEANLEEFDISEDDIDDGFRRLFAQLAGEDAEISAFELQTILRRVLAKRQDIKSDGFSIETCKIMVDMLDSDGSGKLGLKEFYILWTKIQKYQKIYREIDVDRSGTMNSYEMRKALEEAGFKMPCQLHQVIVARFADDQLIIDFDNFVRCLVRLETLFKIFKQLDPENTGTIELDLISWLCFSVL
T3 sequence (P04632 1-268 partner): T1 sequence (P04632 1-268 partner)
Put plainly: Calpain inhibition, continuous fluorescence (FRET substrate) assay, calpain 2. The format is biochemical. The settings on record: SensoLyte 520 FRET substrate, 25C. The protocol: as §1

For test [2], the system named is Calpain activity in SH-SY5Y cells. Nature of the test: SH-SY5Y Suc-LLVY-AMC fluorescence assay. In kind it is cell-based. The settings on record: Homo sapiens; SH-SY5Y cells, 100 uM Suc-LLVY-AMC; read-out: SH-SY5Y + AMC IC50.

In the case of `Cn1cc(C(=O)NC(Cc2ccccc2)C(=O)C(N)=O)c(-c2ccc3cccnc3c2)n1` (stereo not drawn) [Compound 1, N-(4-AMINO-3,4-DIOXO-1-PHENYLBUTAN-2-YL)-1-METHYL-3-(QUINOLIN-7-YL)-1H-PYRAZOLE-4-CARBOXAMIDE], the IC50 is below 3 µM on Human Calpain 9/NS1; above 25 µM in test [1]; below 3 µM against Human Calpain 1/NS1; below 3 µM against Human Calpain 2/NS1; above 25 µM in test [2].
For the compound `Cn1cc(C(=O)NC(Cc2ccccc2)C(=O)C(N)=O)c(N2CCNCC2)n1` (stereo not drawn) [Compound 2, N-(4-AMINO-3,4-DIOXO-1-PHENYLBUTAN-2-YL)-1-METHYL-3-(PIPERAZIN-1-YL)-1H-PYRAZOLE-4-CARBOXAMIDE HYDROCHLORIDE], the IC50 was above 10 µM on Human Calpain 9/NS1; above 25 µM in test [1]; above 10 µM at Human Calpain 1/NS1; 3 to 10 µM at Human Calpain 2/NS1; 10 to 25 µM in test [2].
As for `NC(=O)C(=O)C(Cc1ccccc1)NC(=O)c1nsnc1-c1ccc(F)cc1` (stereo not drawn) [Compound 3, N-(4-AMINO-3,4-DIOXO-1-PHENYLBUTAN-2-YL)-4-(4-FLUOROPHENYL)-1,2,5-THIADIAZOLE-3-CARBOXAMIDE], the IC50 at Human Calpain 9/NS1 is below 3 µM; in test [1], 10 to 25 µM; against Human Calpain 1/NS1, below 3 µM; at Human Calpain 2/NS1, below 3 µM; in test [2], below 10 µM.
As to `NC(=O)C(=O)C(Cc1ccccc1)NC(=O)c1cn(C(F)F)nc1-c1nccc2ccccc12` (stereo not drawn) [Compound 4, N-(4-AMINO-3,4-DIOXO-1-PHENYLBUTAN-2-YL)-1-(DIFLUOROMETHYL)-3-(ISOQUINOLIN-1-YL)-1H-PYRAZOLE-4-CARBOXAMIDE], the IC50 against Human Calpain 9/NS1 was below 3 µM; in test [1] it was above 25 µM; against Human Calpain 1/NS1 it was below 3 µM; against Human Calpain 2/NS1 it was below 3 µM; in test [2] it was below 10 µM.
Take `NC(=O)C(=O)C(Cc1ccccc1)NC(=O)c1cnoc1-c1cccc2c1OCO2` (stereo not drawn) [Compound 5, N-(4-AMINO-3,4-DIOXO-1-PHENYLBUTAN-2-YL)-5-(BENZO[d][1,3]DIOXOL-4-YL)ISOXAZOLE-4-CARBOXAMIDE]: the IC50 at Human Calpain 9/NS1 is below 3 µM; in test [1] it was 10 to 25 µM; against Human Calpain 1/NS1, below 3 µM; against Human Calpain 2/NS1, below 3 µM; in test [2], below 10 µM.
Consider `Cn1cc(C(=O)NC(Cc2ccccc2)C(=O)C(N)=O)c(-c2cccc3ncsc23)n1` (stereo not drawn) [Compound 6, N-(4-AMINO-3,4-DIOXO-1-PHENYLBUTAN-2-YL)-3-(BENZO[D]THIAZOL-7-YL)-1-METHYL-1H-PYRAZOLE-4-CARBOXAMIDE], for which the IC50 against Human Calpain 9/NS1 is below 3 µM; in test [1], below 10 µM; at Human Calpain 1/NS1, below 3 µM; on Human Calpain 2/NS1 it was below 3 µM; in test [2] it was below 10 µM.
Take `NC(=O)C(=O)C(Cc1ccccc1)NC(=O)c1cn(C(F)F)nc1-c1cccc2ncsc12` (stereo not drawn) [Compound 7, N-(4-AMINO-3,4-DIOXO-1-PHENYLBUTAN-2-YL)-3-(BENZO[D]THIAZOL-7-YL)-1-(DIFLUOROMETHYL)-1H-PYRAZOLE-4-CARBOXAMIDE]: the IC50 is below 3 µM at Human Calpain 9/NS1; below 10 µM in test [1]; below 3 µM against Human Calpain 1/NS1; below 3 µM at Human Calpain 2/NS1; below 10 µM in test [2].
As for `NC(=O)C(=O)C(Cc1ccccc1)NC(=O)c1cnoc1-c1cccc2c1OC(F)(F)O2` (stereo not drawn) [Compound 8, N-(4-AMINO-3,4-DIOXO-1-PHENYLBUTAN-2-YL)-5-(2,2-DIFLUOROBENZO[d][1,3]DIOXOL-4-YL)ISOXAZOLE-4-CARBOXAMIDE], the IC50 is below 3 µM on Human Calpain 9/NS1; 10 to 25 µM in test [1]; below 3 µM against Human Calpain 1/NS1; below 3 µM on Human Calpain 2/NS1; above 25 µM in test [2].
On to `Cn1cc(C(=O)NC(Cc2ccccc2)C(=O)C(N)=O)c(-n2cnc3ccccc32)n1` (stereo not drawn) [Compound 9, N-(4-AMINO-3,4-DIOXO-1-PHENYLBUTAN-2-YL)-3-(1H-BENZO[D]IMIDAZOL-1-YL)-1-METHYL-1H-PYRAZOLE-4-CARBOXAMIDE], for which the IC50 was below 3 µM against Human Calpain 9/NS1; 10 to 25 µM in test [1]; below 3 µM on Human Calpain 1/NS1; below 3 µM at Human Calpain 2/NS1; above 25 µM in test [2].
`COc1cccc(-c2nc(C)oc2C(=O)NC(Cc2ccccc2)C(=O)C(N)=O)c1F` (stereo not drawn) [Compound 75, N-(4-AMINO-3,4-DIOXO-1-PHENYLBUTAN-2-YL)-4-(2-FLUORO-3-METHOXYPHENYL)-2-METHYLOXAZOLE-5-CARBOXAMIDE]: the IC50 was below 3 µM on Human Calpain 9/NS1, 10 to 25 µM in test [1], below 3 µM against Human Calpain 1/NS1 and below 3 µM against Human Calpain 2/NS1.
On to `Cc1nc(-c2c(F)cccc2F)c(C(=O)NC(Cc2ccccc2)C(=O)C(N)=O)o1` (stereo not drawn) [Compound 76, N-(4-AMINO-3,4-DIOXO-1-PHENYLBUTAN-2-YL)-4-(2,6-DIFLUOROPHENYL)-2-METHYLOXAZOLE-5-CARBOXAMIDE], for which the half-inhibitory concentration (IC50) is below 3 µM against Human Calpain 9/NS1, 10 to 25 µM in test [1], below 3 µM against Human Calpain 1/NS1 and below 3 µM on Human Calpain 2/NS1.
For the compound `Cn1cc2cccc(-c3nn(C(F)F)cc3C(=O)NC(Cc3ccccc3)C(=O)C(N)=O)c2n1` (stereo not drawn) [Compound 77, N-(4-AMINO-3,4-DIOXO-1-PHENYLBUTAN-2-YL)-1-(DIFLUOROMETHYL)-3-(2-METHYL-2H-INDAZOL-7-YL)-1H-PYRAZOLE-4-CARBOXAMIDE], the half-inhibitory concentration (IC50) is below 3 µM against Human Calpain 9/NS1, 10 to 25 µM in test [1], below 3 µM against Human Calpain 1/NS1 and below 3 µM on Human Calpain 2/NS1.

One may read the IC50 as the concentration needed to halve the response being measured.
